ChEMBL document CHEMBL1145507, “X-ray structural analysis of Plasmodium falciparum enoyl acyl carrier protein reductase as a pathway toward the optimization of triclosan antimalarial efficacy” (J Biol Chem, 2007)

How the values were obtained:
Plasmodium falciparum [1] = assay: Antimalarial activity against Plasmodium falciparum 3D7 by reduced [3H]hypoxanthine uptake; type: functional, organism-based
[2] = molecular target: T1, Enoyl-acyl-carrier protein reductase (Plasmodium falciparum, UniProt Q965D5); assay: Inhibition of Plasmodium falciparum ENR
T1 sequence (Q965D5 whole entry): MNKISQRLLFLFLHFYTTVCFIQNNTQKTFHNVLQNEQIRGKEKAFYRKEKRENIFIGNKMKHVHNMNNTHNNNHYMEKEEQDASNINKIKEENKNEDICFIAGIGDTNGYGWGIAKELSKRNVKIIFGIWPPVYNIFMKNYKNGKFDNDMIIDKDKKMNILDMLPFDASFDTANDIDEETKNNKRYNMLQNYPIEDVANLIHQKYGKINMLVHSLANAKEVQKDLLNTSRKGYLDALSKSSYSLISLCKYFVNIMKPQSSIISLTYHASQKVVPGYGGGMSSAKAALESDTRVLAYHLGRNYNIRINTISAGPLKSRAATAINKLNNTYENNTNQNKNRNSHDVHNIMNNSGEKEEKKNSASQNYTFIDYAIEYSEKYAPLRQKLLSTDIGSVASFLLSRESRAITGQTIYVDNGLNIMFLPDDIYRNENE

Plasmodium falciparum [3] = assay: Antimalarial activity against Plasmodium falciparum Dd2 by reduced [3H]hypoxanthine uptake; type: functional, organism-based
Plasmodium falciparum [4] = assay: Antimalarial activity against Plasmodium falciparum 3D7; type: functional, organism-based
Plasmodium falciparum [5] = assay: Antimalarial activity against Plasmodium falciparum Dd2; type: functional, organism-based
Plasmodium falciparum [6] = assay: Antimalarial activity against Plasmodium falciparum 3D7 expressing katG; type: functional, organism-based
Plasmodium falciparum [7] = assay: Antimalarial activity against Plasmodium falciparum Dd2 expressing katG; type: functional, organism-based

Row | Structure (SMILES) | EC50 (Plasmodium falciparum [1]) | IC50 [2] | EC50 (Plasmodium falciparum [3]) | IC50 (Plasmodium falciparum [4]) | IC50 (Plasmodium falciparum [5]) | IC50 (Plasmodium falciparum [6]) | IC50 (Plasmodium falciparum [7])
1 | O=C(O)c1ccc(Oc2ccc(Cl)cc2Cl)c(O)c1 | > 100 µM | > 100000 nM | > 100 µM | – | – | – | –
2 | N#Cc1ccc(Oc2ccc(-c3ccncc3)cc2O)c(Cl)c1 | 11 µM | 2800 nM | 11 µM | – | – | – | –
3 | Cc1ccc(Oc2ccc(Cl)cc2Cl)c(O)c1 | 10 µM | 200 nM | 14 µM | – | – | – | –
4 | N#Cc1ccc(Oc2ccc(-c3ccccn3)cc2O)c(Cl)c1 | 8.1 µM | 700 nM | 12 µM | – | – | – | –
5 | Oc1cc(-c2cccnc2)ccc1Oc1ccc(Cl)cc1Cl | 23 µM | 33000 nM | 39 µM | – | – | – | –
6 | Oc1cc(-c2ccccc2)ccc1Oc1ccc(Cl)cc1Cl | 2.3 µM | 140 nM | 3.9 µM | – | – | – | –
7 | CCC(C)Cc1ccc(Oc2ccc(Cl)cc2Cl)c(O)c1 (configuration not stated) | 2 µM | 290 nM | 2.9 µM | – | – | – | –
8 | Oc1cc(-c2nn[nH]n2)ccc1Oc1ccc(Cl)cc1Cl | > 100 µM | > 100000 nM | > 100 µM | – | – | – | –
9 | Oc1cc(CCCc2ccccc2)ccc1Oc1ccc(Cl)cc1Cl | 6.4 µM | 440 nM | 7.2 µM | – | – | – | –
10 | Oc1cc(CCc2ccccc2)ccc1Oc1ccc(Cl)cc1Cl | 5.6 µM | 76 nM | 11 µM | – | – | – | –
11 | N#Cc1ccc(Oc2ccc(Cl)cc2Cl)c(O)c1 | 19 µM | 49 nM | 22 µM | – | – | – | –
12 | NC(=O)c1ccc(Oc2ccc(Cl)cc2Cl)c(O)c1 | 40 µM | 21000 nM | 45 µM | – | – | – | –
13 | Oc1cc(Cc2ccccn2)ccc1Oc1ccc(Cl)cc1Cl | 7.5 µM | 640 nM | 13 µM | – | – | – | –
14 | Oc1cc(Cc2cccnc2)ccc1Oc1ccc(Cl)cc1Cl | 6.9 µM | 840 nM | 11 µM | – | – | – | –
15 | CCc1ccc(Oc2ccc(Cl)cc2Cl)c(O)c1 | 4.6 µM | 110 nM | 6 µM | – | – | – | –
16 | Cc1cccc(-c2ccc(Oc3ccc(Cl)cc3Cl)c(O)c2)c1 | 3.5 µM | 230 nM | 6.1 µM | – | – | – | –
17 | Oc1cc(-c2ccc(F)cc2)ccc1Oc1ccc(Cl)cc1Cl | 2.1 µM | 38 nM | 3.1 µM | – | – | – | –
18 | CC(C)CCc1ccc(Oc2ccc(Cl)cc2Cl)c(O)c1 | 7.4 µM | 120 nM | 8 µM | – | – | – | –
19 | CC(C)Cc1ccc(Oc2ccc(Cl)cc2Cl)c(O)c1 | 2 µM | 180 nM | 2.8 µM | – | – | – | –
20 | Cc1ccccc1-c1ccc(Oc2ccc(Cl)cc2Cl)c(O)c1 | 1.6 µM | 440 nM | 2.5 µM | – | – | – | –
21 | Cc1ccccc1-c1ccc(Oc2ccc(C#N)cc2Cl)c(O)c1 | 2.6 µM | 410 nM | 3.3 µM | – | – | – | –
22 | CCCc1ccc(Oc2ccc(Cl)cc2Cl)c(O)c1 | 2.5 µM | 210 nM | 3 µM | – | – | – | –
23 | CCCCc1ccc(Oc2ccc(Cl)cc2Cl)c(O)c1 | 3.5 µM | 480 nM | 3.2 µM | – | – | – | –
24 | Oc1cc(Cc2ccccc2)ccc1Oc1ccc(Cl)cc1Cl | 11 µM | 71 nM | 12 µM | – | – | – | –
25 | Cc1ccc(-c2ccc(Oc3ccc(Cl)cc3Cl)c(O)c2)cc1 | 2.9 µM | 190 nM | 4.3 µM | – | – | – | –
26 | Oc1cc(CC2CCCCC2)ccc1Oc1ccc(Cl)cc1Cl | 3.4 µM | 530 nM | 4.8 µM | – | – | – | –
27 | N#Cc1ccc(Oc2ccc(Cc3ccncc3)cc2O)c(Cl)c1 | 7.4 µM | 530 nM | 13 µM | – | – | – | –
28 | NNC(=O)c1ccncc1 [ISONIAZID] | – | – | – | 1.2 mM | 1.8 mM | 1.2 mM | 1.8 mM
29 | Oc1cc(Cl)ccc1Oc1ccc(Cl)cc1Cl [TRICLOSAN] | 2.8 µM | – | 3.8 µM | – | – | – | –
